The test system of test [1] is hyperglycemia KK-A^y mice. In words: glucose tolerance test (OGTT) in hyperglycemia KK-A^y mice. It is filed as in vivo. The following applies: OGTT 12th day, glucose 2.0 g/kg oral, metformin 8 g/kg, group 11. Here is the method: KK-A^y mice are purchased from Chinese Academy of Medical Sciences & Peking Union Medical College Institute of Animal Studies. Experiments are carried out after adapting to the environment (T=20-24° C., constant humidity: 50-60%, 12 hours light exposure (8:00-20:00), soundproof, free feeding and drinking) for 1 week. Glucometer is purchased from Roche.
Each group has 8 mice, and is administrated successively for 3 weeks. Model control group is given with equal amounts of 0.5% CMC-Na.
3) Glucose tolerance test (OGTT): glucose tolerance is detected at the 12th day after administration. The mice are fasted for 12 hours and blood is collected (0 h). After being given with glucose (2.0 g/kg) by oral administration, blood is collected from tip of tail to detect the blood sugar level after 30 min, 60 min and 120 min respectively (see table 11).

For test [2], the system named is hyperglycemia KK-A^y mice. In words: blood sugar of hyperglycemia KK-A^y mice. It counts as in vivo. Further details: blood sugar: unit not given here. The following applies: metformin 8 g/kg, group 11. As for the experimental part:
(§1) Materials: accurately weigh the 2 compounds S13 and S28 discussed in example 2, and then add 0.5% CMC-Na to make the solution of 5 mg/ml used for activity test. KK-A^y mice are purchased from Chinese Academy of Medical Sciences & Peking Union Medical College Institute of Animal Studies. Experiments are carried out after adapting to the environment (T=20-24° C., constant humidity: 50-60%, 12 hours light exposure (8:00-20:00), soundproof, free feeding and drinking) for 1 week. Glucometer is purchased from Roche.
(§2) Methods: 10 male C57 mice of 6-8 weeks of 20-22 g are used as normal control group (1). Detect the fasting glucose of male KK-A^y mice, which are 6-8 weeks with the weight of 28-32 g, and divide them into different groups according to the blood sugar level and body weight: (2) model control group, (3) which is administered by compound S13 with the dose of 1 mg/kg, (4) which is administered by compound S13 with the dose of 5 mg/kg, (5) which is administered by compound S13 with the dose of 10 mg/kg, (6) which is administered by compound S13 with the dose of 20 mg/kg, (7) which is administered by compound S28 with the dose of 1 mg/kg, (8) which is administered by compound S28 with the dose of 5 mg/kg, (9) which is administered by compound S28 with the dose of 10 mg/kg, (10) which is administered by compound S28 with the dose of 20 mg/kg, (11) which is administered by metformin with the dose of 8 g/kg, (12) which is administered by compound S13 with the dose of 2.5 mg/kg and metformin with the dose of 4 g/kg, (13) which is administered by compound S13 with the dose of 5 mg/kg and metformin with the dose of 4 g/kg, (14) which is administered by compound S28 with the dose of 2.5 mg/kg and metformin with the dose of […], (15) which is administered by compound S28 with the dose of 5 mg/kg and metformin with the dose of […]. Each group has 8 mice, and is administrated successively for 3 weeks. Model control group is given with equal amounts of 0.5% CMC-Na.
1) Effects of drugs on blood sugar: at the first day after administration, the mice are fasted for 2 hours and blood is collected (0 h) to detect the fasting blood sugar. After the compound is given to the mice by intragastric administration for 30 min, blood is collected from tip of tail to detect the blood sugar level.
(§3) 2) Effects on body weight and blood sugar: the body weight of mice are recorded at the 2th, 5th, 8th, 11th, 14th, 17th, 20th day after administration, and blood is collected from tip of tail to detect the blood sugar level (see table 10).

Test [3] deals with hyperglycemia KK-A^y mice. As to the kind of experiment: blood lipid and liver function of hyperglycemia KK-A^y mice. It is filed as in vivo. The following applies: 3 weeks, metformin 8 g/kg, group 11. Here is the method: as §1, §2
4) After the last administration, the mice are executed under anesthesia, and blood is taken to be centrifuged at 3000 rpm in 4[…]. Serum total cholesterol, low density lipoprotein and triglyceride TG are detected.

A short description of test [4]: body weight of hyperglycemia KK-A^y mice. The note with it: metformin 8 g/kg, group 11. It counts as in vivo. As for the experimental part:
as §1, §2, §3

For another test, the target named is T1, dipeptidyl peptidase-4 (Homo sapiens, UniProt P27487).
T1 construct: purchased
As to the kind of experiment: dipeptidyl peptidase-4 inhibitory activity test in vitro (DPP-4 inhibitor screening kit). It counts as biochemical. An excerpt:
The above compounds are detected by DPP-4 inhibitor screening kit.

In another test the target is T2, HMG-CoA reductase (Homo sapiens, UniProt P04035).
T2 sequence (P04035 426-888 limits assumed): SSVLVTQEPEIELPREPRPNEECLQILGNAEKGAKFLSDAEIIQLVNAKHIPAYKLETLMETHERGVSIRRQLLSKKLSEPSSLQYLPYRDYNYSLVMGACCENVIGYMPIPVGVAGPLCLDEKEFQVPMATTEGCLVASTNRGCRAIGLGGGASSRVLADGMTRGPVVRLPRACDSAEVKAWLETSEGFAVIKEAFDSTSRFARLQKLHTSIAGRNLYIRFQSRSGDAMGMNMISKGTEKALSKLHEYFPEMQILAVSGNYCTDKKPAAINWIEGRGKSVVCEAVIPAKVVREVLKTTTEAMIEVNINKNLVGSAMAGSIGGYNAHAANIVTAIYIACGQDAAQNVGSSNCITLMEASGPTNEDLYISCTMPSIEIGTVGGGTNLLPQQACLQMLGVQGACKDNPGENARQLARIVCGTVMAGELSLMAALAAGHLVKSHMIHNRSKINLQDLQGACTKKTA
As to the kind of experiment: HMG-CoA reductase inhibitory activity test in vitro. It counts as biochemical.

A further test deals with aldose reductase (Homo sapiens, UniProt P15121). In words: aldose reductase inhibitory activity test in vitro. It is filed as biochemical. In outline: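 Absorbance assay with 0.1 mM NADPH solution and enzyme preincubated with compound 10 min at room temperature, then 10 mM D,L-glyceraldehyde solution added as substrate. Incubation 30 min at 37 °C in PBS. Read-out is optical density at 340 nm, corrected with blank (no compound) and background (no substrate) wells.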

The next test deals with T3, α-glucosidase (Saccharomyces cerevisiae, UniProt P53341).
T3 construct: purchased Sigma Corporation G5003
In words: α-glucosidase inhibitory activity test in vitro. It is filed as biochemical. The following applies: read-out: α-glucosidase inhibitory activity (IC50).

In test [5] the target is T4, protein tyrosine phosphatase 1B (PTP-1B) (Homo sapiens, UniProt P18031).
T4 sequence (P18031 1-435): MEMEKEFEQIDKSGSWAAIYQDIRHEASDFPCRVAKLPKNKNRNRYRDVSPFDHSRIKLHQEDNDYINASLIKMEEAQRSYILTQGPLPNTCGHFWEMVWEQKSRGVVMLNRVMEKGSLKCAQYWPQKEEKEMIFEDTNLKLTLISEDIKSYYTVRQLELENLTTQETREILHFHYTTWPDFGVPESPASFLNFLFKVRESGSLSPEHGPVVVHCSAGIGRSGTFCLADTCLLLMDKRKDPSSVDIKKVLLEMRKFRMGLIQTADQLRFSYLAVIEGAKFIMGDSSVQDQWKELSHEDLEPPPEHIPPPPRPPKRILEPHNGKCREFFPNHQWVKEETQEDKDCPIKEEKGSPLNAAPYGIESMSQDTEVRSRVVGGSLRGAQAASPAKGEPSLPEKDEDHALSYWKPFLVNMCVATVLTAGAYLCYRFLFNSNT
In words: PTP-1B inhibitory activity test in vitro. It is filed as biochemical. An outline of the steps:
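Compound was preincubated 10 min at room temperature with 170 μg/mL PTP-1B solution, then 1 mM pNPP substrate was added and incubated 37 °C for 30 min. Reaction stopped with 3M NaOH; absorbance read at […], with blank and compound-background controls.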

The subject of test [6] is hyperglycemia mice induced by alloxan. As to the kind of experiment: blood sugar of hyperglycemia mice induced by alloxan. It counts as in vivo, Kunming species mice. Here is the method: Blood glucose determination kit (batch number 20140403) is purchased from Nanjing Jiancheng Bioengineering Institute. Methods: after being acclimatized for 1 week, 10 randomly selected Kunming species male mice of SPF level of 20±2 g are used as control group, while the other 50 mice are given alloxan to make model by intraperitoneal injection according to body weight 220 mg/kg.

Marks after values point to notes of the source that are not given here.

T1 sequence (P27487 whole entry, species assumed): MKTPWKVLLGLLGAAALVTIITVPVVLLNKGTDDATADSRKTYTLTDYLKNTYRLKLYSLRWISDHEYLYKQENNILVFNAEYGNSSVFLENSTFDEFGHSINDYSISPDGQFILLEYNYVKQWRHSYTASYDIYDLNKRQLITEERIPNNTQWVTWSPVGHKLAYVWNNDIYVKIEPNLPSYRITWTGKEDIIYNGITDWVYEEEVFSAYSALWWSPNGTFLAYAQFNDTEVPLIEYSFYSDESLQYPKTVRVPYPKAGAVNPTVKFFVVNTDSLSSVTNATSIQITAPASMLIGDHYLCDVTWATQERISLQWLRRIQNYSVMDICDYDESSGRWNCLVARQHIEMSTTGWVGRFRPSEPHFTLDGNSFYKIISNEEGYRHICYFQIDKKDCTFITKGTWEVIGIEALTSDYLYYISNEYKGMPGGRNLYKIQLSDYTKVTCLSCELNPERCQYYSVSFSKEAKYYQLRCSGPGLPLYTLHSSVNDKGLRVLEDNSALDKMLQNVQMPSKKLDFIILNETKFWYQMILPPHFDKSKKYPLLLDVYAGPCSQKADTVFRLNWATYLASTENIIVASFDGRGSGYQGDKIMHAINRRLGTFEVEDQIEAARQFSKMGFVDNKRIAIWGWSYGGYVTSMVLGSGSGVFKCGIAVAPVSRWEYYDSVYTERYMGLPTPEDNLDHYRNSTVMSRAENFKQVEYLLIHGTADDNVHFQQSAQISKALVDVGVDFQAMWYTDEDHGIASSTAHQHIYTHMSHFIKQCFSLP
T3 sequence (P53341 whole entry): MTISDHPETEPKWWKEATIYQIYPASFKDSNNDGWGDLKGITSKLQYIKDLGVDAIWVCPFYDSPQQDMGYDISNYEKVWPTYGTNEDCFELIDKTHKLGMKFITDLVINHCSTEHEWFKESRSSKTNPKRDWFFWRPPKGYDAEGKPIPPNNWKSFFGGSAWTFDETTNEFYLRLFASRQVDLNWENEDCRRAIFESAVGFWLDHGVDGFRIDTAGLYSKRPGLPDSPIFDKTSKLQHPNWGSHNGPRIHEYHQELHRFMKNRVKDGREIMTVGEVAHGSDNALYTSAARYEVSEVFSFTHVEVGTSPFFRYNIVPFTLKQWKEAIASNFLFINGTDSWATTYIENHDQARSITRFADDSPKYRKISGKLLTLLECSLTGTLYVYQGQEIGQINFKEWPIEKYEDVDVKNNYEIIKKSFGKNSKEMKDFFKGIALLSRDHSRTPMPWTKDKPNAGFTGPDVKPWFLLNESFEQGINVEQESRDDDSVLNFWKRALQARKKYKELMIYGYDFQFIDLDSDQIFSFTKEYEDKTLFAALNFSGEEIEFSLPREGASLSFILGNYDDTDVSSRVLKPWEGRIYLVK

For `CN(C)C(=N)N=C(N)N` [metformin, reference compound], the “glucose tolerance, blood sugar 0 min” value in test [1] (0 min) is 6.5**. For the same molecule, in [1] (30 min), the “glucose tolerance, blood sugar 30 min” value is recorded as 12.8**. The “glucose tolerance, blood sugar 60 min” value in test [1] (60 min) is recorded as 10.47**. Further, the “glucose tolerance, blood sugar 120 min” value in test [1] (120 min) was 7.41**. Also, the “blood sugar at the 1st day, 0” value in [2] (1st day 0 h) amounted to 14.9. Besides, the “blood sugar at the 1st day, 30 min” value in test [2] (1st day 30 min after intragastric administration) was 9.85. For the same molecule, the blood sugar was 13.05 in test [2] (2st day); 13.9 in test [2] (5st day); 13.8 in test [2] (8st day); 13.5 in test [2] (11st day); 13.7 in test [2] (14st day); 13.5 in [2] (17st day). Moreover, the blood sugar in [2] (20st day) was 13.24. The ALT in test [3] is given as 89.6 U/L. Besides, the AST in [3] is given as 137.5 U/L. Moreover, the HDL-C in test [3] was determined as 23.1 mg/dL. This molecule had an LDL-C in [3] of 72 mg/dL. Further, in test [3], the SOD is on record as 3.7 U/L. Besides, the TC in test [3] is given as 176* mg/dL. This molecule also gave a TG in [3] of 578 mg/dL. In addition, the Body weight in test [4] (2st day) was determined as 30.7 g; in test [4] (5st day), 30.53 g; in [4] (8st day), 30.8 g; in test [4] (11st day), 30.6 g; in test [4] (14st day), 30.7 g; in test [4] (17st day) it was 30.8 g. Besides, the Body weight in test [4] (20st day) amounted to 30.5 g.

The IC50 is the concentration needed to halve the response being measured. Regarding `CC(C)=CCC/C(C)=C/CCC1=C[C@@H](c2ccccc2)OC1=O` [S16, (S,E)-3-(4,8-dimethylnona-3,7-dien-1-yl)-5-phenylfuran-2(5H)-one], the half-maximal inhibitory concentration (IC50) on dipeptidyl peptidase-4 stood at 12 µM; on HMG-CoA reductase, 3.6 µM; against aldose reductase, 58.2 µM; at α-glucosidase it was 0.23 µM; in test [5], 12.5 µM. The “blood sugar after administration” value in [6] (50 mg/kg intragastric, 10 days, fasted 10 hours) was 6.12** mmol/L. Moreover, the “blood sugar before administration” value in test [6] (before administration) was determined as 15.25 mmol/L.

For the origin of these results see patent publication US10441562B2, “Aromatic farnesyl compound and application thereof” (INSTITUTE OF MICROBIOLOGY, CHINESE ACADEMY OF SCIENCES, priority 2015, dated 2019).
